From PubChem BioAssay (NCI)
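In this assay, cells in 96-well plates receive the compound at five concentrations for 48 hours. Endpoints are linearly interpolated between the surrounding concentrations. TGI is the concentration that stops growth completely.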

What was measured:
Experiment in all cases: NCI-60 cell line screen, 48 h
OVCAR-8 ovarian = system: OVCAR-8 ovarian
NCI-H522 lung = system: NCI-H522 lung
MALME-3M melanoma = system: MALME-3M melanoma
SK-MEL-2 melanoma = system: SK-MEL-2 melanoma
A549 NSCLC = system: A549 NSCLC
SNB-75 CNS = system: SNB-75 CNS
SNB-19 CNS = system: SNB-19 CNS
SK-OV-3 ovarian = system: SK-OV-3 ovarian
SK-MEL-5 melanoma = system: SK-MEL-5 melanoma
UACC-257 melanoma = system: UACC-257 melanoma
MDA-MB-435 = system: MDA-MB-435
COLO 205 colon = system: COLO 205 colon
UACC-62 melanoma = system: UACC-62 melanoma
HT29 colon = system: HT29 colon
SN12C renal = system: SN12C renal
EKVX NSCLC = system: EKVX NSCLC
SF-268 CNS = system: SF-268 CNS
OVCAR-5 ovarian = system: OVCAR-5 ovarian
HL-60(TB) leukemia = system: HL-60(TB) leukemia
OVCAR-4 ovarian = system: OVCAR-4 ovarian
LOX IMVI melanoma = system: LOX IMVI melanoma
HCT-116 colon = system: HCT-116 colon
BT-549 breast = system: BT-549 breast
RXF 393 renal = system: RXF 393 renal
HS 578T breast = system: HS 578T breast
HCT-15 colon = system: HCT-15 colon
RPMI-8226 leukemia = system: RPMI-8226 leukemia
786-0 renal = system: 786-0 renal
CAKI-1 renal = system: CAKI-1 renal
DU-145 prostate = system: DU-145 prostate
MDA-MB-231 breast = system: MDA-MB-231 breast
NCI-H226 lung = system: NCI-H226 lung
MCF7 breast = system: MCF7 breast
U251 CNS = system: U251 CNS
T-47D breast = system: T-47D breast
A498 renal = system: A498 renal
M14 melanoma = system: M14 melanoma
NCI/ADR-RES ovarian = system: NCI/ADR-RES ovarian
K-562 leukemia = system: K-562 leukemia
KM12 colon = system: KM12 colon
PC-3 prostate = system: PC-3 prostate
CCRF-CEM leukemia = system: CCRF-CEM leukemia
SR leukemia = system: SR leukemia
UO-31 renal = system: UO-31 renal
SF-295 CNS = system: SF-295 CNS
SF-539 CNS = system: SF-539 CNS
IGROV1 ovarian = system: IGROV1 ovarian
TK-10 renal = system: TK-10 renal
NCI-H460 lung = system: NCI-H460 lung
SW-620 colon = system: SW-620 colon
HOP-62 NSCLC = system: HOP-62 NSCLC
OVCAR-3 ovarian = system: OVCAR-3 ovarian
MOLT-4 leukemia = system: MOLT-4 leukemia
MDA-N = system: MDA-N
SK-MEL-28 melanoma = system: SK-MEL-28 melanoma

O=C(NNC(=O)c1ccccc1O)c1cccs1
TGI (OVCAR-8 ovarian): > 100 µM | TGI (NCI-H522 lung): 64 µM | TGI (MALME-3M melanoma): > 100 µM | TGI (SK-MEL-2 melanoma): > 100 µM | TGI (A549 NSCLC): > 100 µM | TGI (SNB-75 CNS): > 100 µM | TGI (SNB-19 CNS): > 100 µM | TGI (SK-OV-3 ovarian): > 100 µM | TGI (SK-MEL-5 melanoma): > 100 µM | TGI (UACC-257 melanoma): > 100 µM | TGI (MDA-MB-435): > 100 µM | TGI (COLO 205 colon): > 100 µM | TGI (UACC-62 melanoma): > 100 µM | TGI (HT29 colon): > 100 µM | TGI (SN12C renal): > 100 µM | TGI (EKVX NSCLC): > 100 µM | TGI (SF-268 CNS): > 100 µM | TGI (OVCAR-5 ovarian): > 100 µM | TGI (HL-60(TB) leukemia): > 100 µM | TGI (OVCAR-4 ovarian): > 100 µM | TGI (LOX IMVI melanoma): > 100 µM | TGI (HCT-116 colon): > 100 µM | TGI (BT-549 breast): > 100 µM | TGI (RXF 393 renal): > 100 µM | TGI (HS 578T breast): > 100 µM | TGI (HCT-15 colon): > 100 µM | TGI (RPMI-8226 leukemia): > 100 µM | TGI (786-0 renal): > 100 µM | TGI (CAKI-1 renal): > 100 µM | TGI (DU-145 prostate): > 100 µM | TGI (MDA-MB-231 breast): > 100 µM | TGI (NCI-H226 lung): > 100 µM | TGI (MCF7 breast): > 100 µM | TGI (U251 CNS): > 100 µM | TGI (T-47D breast): > 100 µM | TGI (A498 renal): > 100 µM | TGI (M14 melanoma): > 100 µM | TGI (NCI/ADR-RES ovarian): > 100 µM | TGI (K-562 leukemia): > 100 µM | TGI (KM12 colon): > 100 µM | TGI (PC-3 prostate): > 100 µM | TGI (CCRF-CEM leukemia): > 100 µM | TGI (SR leukemia): > 100 µM | TGI (UO-31 renal): > 100 µM | TGI (SF-295 CNS): > 100 µM | TGI (SF-539 CNS): > 100 µM | TGI (IGROV1 ovarian): > 100 µM | TGI (TK-10 renal): > 100 µM | TGI (NCI-H460 lung): > 100 µM | TGI (SW-620 colon): > 100 µM | TGI (HOP-62 NSCLC): > 100 µM | TGI (OVCAR-3 ovarian): > 100 µM | TGI (MOLT-4 leukemia): > 100 µM | TGI (MDA-N): > 100 µM | TGI (SK-MEL-28 melanoma): > 100 µM
